Reference: patent US20250270274A1, “SUPER LONG-LASTING GLP1 OR GLP1/GIP ANALOGUE DRUG FOR TYPE-2 DIABETES AND OBESITY” (Serpentide Inc., priority 2024, published 2025)
Where “and” joins values, the source holds several entries; their conditions need not be identical. Identical values can stand only once.

Experiments:
C57BL mice = test: Intraperitoneal glucose tolerance test (IPGTT) after single SC injection; type: in vivo; details: for glucose-lowering effect (IPGTT): single SC, P19 15 nmol/kg, P28 10 or 30 nmol/kg (FIG. 5 legend); for glucose reduction (IPGTT): single SC 100 or 300 nmol/kg
Experimental: The effect of the fusion proteins on glucose tolerance was determined in C57BL mice (Beijing Vital River Laboratory Animal Technology Co., Ltd.). Each group (6 mice per group) received a single subcutaneous injection of PBS vehicle control, dulaglutide (TRULICITY® brand) (Vetter Pharma-Fertigung GmbH & Co. […] Intraperitoneal glucose tolerance tests (IPGTT) were performed on Day 1, 7, 14, 21, up to 28 after 6 hours fasting with tail vein blood glucose measurements at 0, 15, 30, 60, and 120 minutes.

DIO mice = test: 28-day study in DIO mice: body weight, blood glucose, food intake; type: in vivo; details: for weight loss: after 28 days
Experimental: To further characterize and understand the efficacy of the fusion proteins, body weight and metabolic parameters were measured throughout a 28-day study in DIO mice (Beijing Vital River Laboratory Animal Technology Co., Ltd.).
The effects of all fusion proteins on blood glucose reduction and food intake were determined in the DIO mice described above (FIG. 7A and FIG. 7B). All mice are bled after fasting for 6 hours to measure blood glucose twice weekly.

[1] = cited from earlier work

Compound | glucose-lowering effect (IPGTT) (C57BL mice; Day 1) | glucose-lowering effect (IPGTT) (C57BL mice; Day 7) | weight loss (DIO mice; 30 nmol/kg twice weekly) | decrease in body weight compared with dulaglutide (DIO mice; twice weekly) | half-life in mice [1] | glucose reduction (IPGTT) (C57BL mice; Day 1) | glucose reduction (IPGTT) (C57BL mice; Day 7 and 14) | glucose reduction (IPGTT) (C57BL mice; Day 21) | weight loss (DIO mice; 10 nmol/kg twice weekly)
CC[C@H](C)[C@H](NC(=O)[C@H](CC(C)C)NC(=O)[C@H](Cc1c[nH]c2ccccc12)NC(=O)[C@H](CCC(N)=O)NC(=O)[C@@H](NC(=O)[C@H](Cc1ccccc1)NC(=O)[C@H](C)NC(=O)[C@H](CCCCNC(=O)COCCOCCNC(=O)COCCOCCNC(=O)CC[C@H](NC(=O)CCCCCCCCCCCCCCCCCCC(=O)O)C(=O)O)NC(=O)[C@H](CCC(N)=O)NC(=O)[C@H](C)NC(=O)[C@@H](NC(=O)[C@H](CCCCN)NC(=O)[C@H](CC(=O)O)NC(=O)[C@H](CC(C)C)NC(=O)C(C)(C)NC(=O)[C@@H](NC(=O)[C@H](CO)NC(=O)[C@H](Cc1ccc(O)cc1)NC(=O)[C@H](CC(=O)O)NC(=O)[C@H](CO)NC(=O)[C@@H](NC(=O)[C@H](Cc1ccccc1)NC(=O)[C@@H](NC(=O)CNC(=O)[C@H](CCC(=O)O)NC(=O)C(C)(C)NC(=O)[C@@H](N)Cc1ccc(O)cc1)[C@@H](C)O)[C@@H](C)O)[C@@H](C)CC)[C@@H](C)CC)C(C)C)C(=O)N[C@@H](C)C(=O)NCC(=O)NCC(=O)N1CCC[C@H]1C(=O)N[C@@H](CO)C(=O)N[C@@H](CO)C(=O)NCC(=O)N[C@@H](C)C(=O)N1CCC[C@H]1C(=O)N1CCC[C@H]1C(=O)N1CCC[C@H]1C(=O)N[C@@H](CO)C(N)=O [P19, Tirzepatide, reference compound] | showed glucose-lowering effects | lost all effects | 26% | more significant dose-dependent decrease in body weight | less than one day |  |  |  | 
dulaglutide [reference compound] |  |  | 16.6% |  |  | very strong glucose reduction | rapidly waned | completely lost effect | 10.9% and 11%
